{"source": "paper PMC11858653", "about": "“Design, Synthesis and Bioactive Evaluation of Topo I/c-MYC Dual Inhibitors to Inhibit Oral Cancer via Regulating the PI3K/AKT/NF-κB Signaling Pathway” (Molecules, 2025)", "key": {"[1]": {"system": "NCI-H460", "test": "MTT antiproliferative assay, NCI-H460", "assay_type": "cell-based, human", "conditions": "Homo sapiens, NCI-H460, 48 h, mean ± SD"}, "[2]": {"system": "Cal27", "test": "MTT antiproliferative assay, Cal27", "assay_type": "cell-based, human", "conditions": "Homo sapiens, CAL-27, 48 h, mean ± SD"}, "[3]": {"system": "c-MYC protein", "test": "Western blot of c-MYC protein in Cal27 cells", "assay_type": "cell-based, human", "conditions": "Cal27, 24 h", "description": "(§1) After Cal27 cells had been treated with the desired concentration of each drug for 24 h, the cells were collected and the total protein was extracted. The cells were then separated on a gel of appropriate concentration and transferred to a PVDF membrane. After blocking with milk, the membrane was incubated with primary antibody at 4 °C overnight. Subsequently, the membrane was incubated with horseradish peroxidase-coupled secondary antibody for 2 h. Finally, the protein bands were used to detect the immunoreactive signal using an enhanced chemiluminescence kit."}, "[4]": {"system": "Cal27 cells", "test": "Annexin V-FITC/PI apoptosis assay", "assay_type": "cell-based, human", "conditions": "Cal27, 24 h, increased from 5.88%; treated with 1, 2, 3 and 4 μM", "description": "Cal27 cells were treated with compound 7be for 24 h. Tumor cells were then digested and collected. The resulting cells were incubated with Annexin V/PI light-avoidance staining for 0.5 h. Finally, different stages of apoptosis populations of Cal27 cells were immediately analyzed by flow cytometry."}, "[5]": {"system": "Cal27 cells", "test": "MDC staining for autophagy", "assay_type": "cell-based, human", "conditions": "24 h", "description": "In order to determine whether compound 7be induced autophagy, Cal27 cells were incubated with compound 7be at different concentrations for 24 h. MDC staining was used to detect any MDC-positive vesicles in cells of Cal27 cells by confocal microscope (Figure 13a)."}, "[6]": {"system": "LC3, p62, Beclin-1 in Cal27 cells", "test": "Western blot of autophagy-related markers", "assay_type": "cell-based, human", "description": "In addition, in order to further clarify the potential mechanism of autophagy induced by compound 7be, Western blot analysis was used to detect the expression of autophagy-related markers, including microtubule-associated protein 1 light chain protein-3 protein (LC3), p62 and Beclin-1. In the process of autophagy, LC3 is essential for the maturation of the autophagosome and its fusion with the lysosome.\nas §1"}, "[7]": {"system": "human oral cancer Cal27 xenograft tumor", "test": "In vivo antitumor activity, Cal27 xenograft", "parameters": "species or system BALB/c nude mice", "conditions": "for relative tumor proliferation rate / tumor suppression rate / tumor growth inhibition (TGI): 21 days", "description": "(§2) Nude mouse organ and tumor tissues fixed with neutral formalin solution were paraffin-embedded according to the conventional processing method. Sections were cut to a thickness of approximately 5 μm, placed on glass slides and dewaxed in an oven at 60 °C, stained for H&E and immunohistochemistry and finally visualized with the Cytation 5 imaging system.\n(§3) For this assay, 130 SPF-grade BALB/c mice (female, 4–6 weeks old, 18–20 g) were obtained from Chang Zhou Cavens Laboratory Animal Ltd. (Changzhou, China). The in vivo activity experiments were commissioned by Nanjing OG Pharmaceuticals, Co., Ltd. (Nanjing, China) All mice were housed in plastic cages, fed, and watered under standard conditions and air filtration (22 ± 2 °C; 12 h light/dark cycles). Under aseptic conditions, human oral cancer Cal27 cells were inoculated subcutaneously in the right axilla of BALB/c nude mice. When the tumors had grown to about 85 mm^3, 24 […] mice with good growth status and good homogeneity of tumor size were selected and randomly divided into the following four groups of six mice each: (1) the model group; (2) the low-dose group; (3) the high-dose group; and (4) the positive drug group. The drug dose in the low-dose group was 10 mg/kg, which was injected intraperitoneally once every other day, for the duration of 21 days of administration; the drug dose in the high-dose group was 20 mg/kg, which was injected intraperitoneally once every other day, for the duration of 21 days of administration; and the drug dose in the cisplatin group was 2 mg/kg, which was injected intraperitoneally once every other day, for the duration of 21 days of administration. Normal tissues of the heart, liver, spleen, lung and kidney and half of the tumor tissues were fixed with 4% formalin solution and embedded in paraffin for histological analysis; the other half of the tumor tissues were preserved in liquid nitrogen, and the supernatant was extracted after milling the tissues and detected by Western blot."}, "[8]": {"test": "In vivo biological safety evaluation", "parameters": "species or system BALB/c nude mice", "description": "as §2, §3"}, "[9]": {"conditions": "10 mg/kg i.p. once every other day"}, "[10]": {"conditions": "20 mg/kg i.p. once every other day"}}, "note": "“And” between values parts separate entries of the source, which are not always exact repeats. Equal values may be shown once. “Also recorded” adds a separate entry of the source."}
{"smiles": "Cc1cc(C)c2c(n1)S(=O)(=O)c1c-2nc(NCCN2CCCCC2)c2ccccc12", "note": "[7be, 7,9-Dimethyl-5-((2-(piperidin-1-yl)ethyl)amino) pyrido[3′,2′:4,5]thieno[3,2-c]isoquinoline 11,11-dioxide]", "values": [{"measurement": "IC50", "setting": "[1]", "value": "2920 ± 560", "unit": "nM"}, {"measurement": "IC50", "setting": "[2]", "value": "1120 ± 220", "unit": "nM"}, {"measurement": "concentration needed to significantly downregulate the level of c-MYC protein", "setting": "[3]", "value": 2, "unit": "µM"}, {"measurement": "number of apoptotic cells (early and late apoptotic cells)", "setting": "[4]", "value": 32.8, "unit": "%"}, {"measurement": "MDC staining fluorescence", "setting": "[5]; Cal27, high concentrations (3 μM and 4 μM)", "value": "significant green fluorescence"}, {"measurement": "MDC staining fluorescence", "setting": "[5]; Cal27, low concentrations (1 μM and 2 μM)", "value": "weak green fluorescence"}, {"measurement": "expression of autophagy biomarkers Beclin-1 and LC3-II", "setting": "[6]", "value": "upregulated"}, {"measurement": "expression of p62", "setting": "[6]", "value": "decreased"}, {"measurement": "relative tumor proliferation rate", "setting": "[7]; [9]", "value": 52.0, "unit": "%"}, {"measurement": "tumor suppression rate / tumor growth inhibition (TGI)", "setting": "[7]; [9]", "value": "48.53% and 48.5%"}, {"measurement": "relative tumor proliferation rate", "setting": "[7]; [10]", "value": 34.1, "unit": "%"}, {"measurement": "tumor suppression rate / tumor growth inhibition (TGI)", "setting": "[7]; [10]", "value": "64.7% and 64.73%"}, {"measurement": "expressions of p62, COX-2 and Bcl-2 in tumor tissue", "setting": "[7]; 20 mg/kg, Western blot of tumor tissue", "value": "decreased"}, {"measurement": "percentage of Ki67-positive cells in tumor tissue", "setting": "[7]; Ki67 immunostaining", "value": "decreased"}, {"measurement": "body weight of mice during treatment", "setting": "[8]; 10 or 20 mg/kg i.p., 21 days", "value": "no significant decrease in body weight; also recorded: no considerable weight loss"}, {"measurement": "organ weight of mice", "setting": "[8]; end of treatment", "value": "no significant difference"}, {"measurement": "H&E staining of major organs", "setting": "[8]; heart, liver, spleen, lung, kidney", "value": "no lesions, degenerations or histopathological abnormalities"}]}
